One substance from patent US20030153081A1, “Viral core protein-cationic lipid-nucleic acid-delivery complexes” (priority 1999, published 2003) can be followed below.

For data set [1], the system named is ND7 cells. Briefly: β-galactosidase reporter gene assay, transfection of undifferentiated ND7 cells. The data set is classed as cell-based, rat/mouse. How it is done: ND7 cells were seeded at a density of 5 ×10^4 cells/well in 24 well culture dishes 24 hrs prior to transfection. Immediately prior to transfection, cells were washed in serum-free media. Complexes were formed by incubating pCMVβ with Mu1 prior to the addition of the cationic liposome DC-Chol/DOPE. In each case 1 μg pCMVβ was complexed with 0.6, 6, 12, and 21 μg Mu1 peptide. Each of these combinations was then complexed with 3, 4 and 6 μg DC-Chol/DOPE. ND7 cells were exposed to transfection complexes for 2 hours then maintained at 37° C., 5% CO2 for another 24 hrs before being harvested and processed for β-galactosidase enzyme assay. Numbers represent means±SD, n=3.
pCMVβ plasmid DNA was complexed to various amounts of polycationic peptide and then mixed with cationic liposome at a ratio of 1:3 (pCMVβ:liposome; w/w). After being washed briefly in serum free media, ND7 cells were exposed to the […] complexes for two hours and then returned to serum containing media Twenty-four hours later the cells were harvested and processed for β-galactosidase enzyme assay. Each condition was performed in triplicate and each experiment replicated three times. Numbers represent means±SD.
ND7s are a well-characterized cell line derived from the fusion of a neuroblastoma N18Tg2) with neonatal rat sensory neurons ^28. The cell line was maintained in normal growth media (NGM) (Leibovitz's L-15 media (BRL) enriched with 10% Fetal bovine serum (BRL), 4 g/L glucose, 4 g/L sodium bicarbonate (BRL), 100 IU/mL penicillin/streptomycin (BRL)) at 37° C. and 5% CO2. The cells were plated onto 24 well plates (Costar) at a density that produced 70% confluence after 24 hours.
Since initial experiments determined that the presence of fetal bovine serum inhibited transfection of ND7 cells serum-free differentiation media was used for all transfections. Various amounts of DNA and liposome were placed in the bottom of a 7 mL sterile Bijou container (Bibby Sterilin Ltd., Staffordshire, U.K.), but not in contact with each other.
(§1) DNA and liposomes were combined by the addition of 400 μL serum-free differentiation media and gentle shaking. The DNA: liposome mixture was incubated at room temperature for 20 to 30 minutes before being applied to the cells. The DNA/liposome mixture was then applied to the cells and incubated at 37° C., 5% CO2 for 2 hours after which this media was replaced with complete media Twenty four to 48 hours later the cells were fixed and processed for X-gal histochemistry as described ^31 or harvested for β-galactosidase enzyme assays (Promega Corp.).
Transfection complexes including the test peptides were generated in the following manner. Various amounts of peptide was placed in the bottom of sterile polystyrene containers alongside, but not in contact with 1 μg·pCMVβ and mixed by adding 400 μl serum free NGM media The complexes were incubated at room temperature for 10 minutes after which DC-Chol/DOPE was added. The pDNA/peptide/liposome complex was further incubated at room temperature for 20 minutes and then administered to cells as above.
We examined the ability of Mu1 and Vp1 to enhance the transfection of a neuronal cell line by cationic liposomes using a β-Galactosidase reporter gene assay. ND7 cells were transfected with pCMVβ complexed to varying amounts of peptide and DC-Chol/DOPE. We have previously shown that the cationic liposome DC-Chol/DOPE is capable of efficiently transfecting the neuronally derived ND7 cell line ^31. […] Temporally, maximal levels of transgene expression are obtained between 48-60 hours post transfection. Therefore, in order to maximize the chance of detecting improvements in transfection we performed all our assays within 12-20 hours of transfection at a time when levels of reporter gene expression were lower. Previously we found a pDNA: liposome ratio of 1:3 (w/w) optimal for transfections in ND7 cells ^31. […]
In general terms: Reporter assays use an easily measured gene product as a stand-in for the process of interest.

Data set [2] deals with ND7 cells. The experiment in a line: X-gal histochemistry cell counts, undifferentiated ND7 cells. The data set is classed as cell-based, rat/mouse. How it is done: ND7 neurons were plated in 24 well culture dishes at a density of 4×10^4 cells/well and allowed to grow for 24 hrs. The undifferentiated ND7 neurons were then transfected with either pCMVb alone (A), pCMVb complexed with DC-Chol/DOPE (1/3, w/w) (B) or with pCMVb complexed with Mu1 and DC-Chol/DOPE (1/12/6) (C). Forty-eight hours later the cells were fixed and processed for histochemical detection of X-Gal.
as §1
Cell counts were performed under ×40 magnification using a Nikon Diaphot inverted microscope. Each transfection was repeated at least three times and at least three separate counts were made for each well.
The β-galactosidase reporter gene assay provides a measure of the overall level of β-galactosidase produced, but gives no information regarding the number of cells transfected. For this reason, we also performed cell counts on transfected ND7 cells. Cells were seeded at a density of 4×10^4 in 24 well culture plates. After 24 hours the cells were washed briefly in serum-free media and transfected with pCMVβ complexed to DC-Chol/DOPE and Mu1 peptide. The ratios used were those found to be optimal in the reporter gene assay, 1:12:6, pCMVβ:Mu1:DC-Chol/DOPE. Using these ratios, we found a 6-fold increase in the number of β galactosidase positive cells (FIGS. 3 & 6).

Data set [3] in a line: charge ratios worked out from the sequence. The data set is classed as physicochemical. An excerpt:
Mu1 is a polycationic peptide comprised of 19 amino acids associated with the core complex of Adenovirus (Table 1) ^27, 32. We compared the DNA binding capacity of Mu1 with the mouse polyomavirus major capsid protein Vp1 by interaction with plasmid DNA in a gel retardation assay. Vp1 is a 19 amino acid peptide that contains a nuclear localization signal ^26 and contains fewer positively charged amino acids than Mu1. It was therefore predicted to have a lower DNA binding capacity.
The success of non-viral gene delivery vehicles as viable alternatives to virus vector-based systems is dependent on the development of complexes with higher and longer lasting transfection efficiencies. Since the initial identification of cationic liposomes as vehicles for the transfer of genetic material into cells there has been a large push to develop better cationic liposome formulations ^5, 7. Most attempts at improving cationic liposomes have been based on structural modifications to the molecule itself ^30. Novel formulations have been developed which have improved transfection efficiencies ^30. However, particular cell types behave differently in regards to cationic liposomal transfection. For example, we found the polypeptide Mu1 better at enhancing cationic liposome mediated transfection than Vp1. This was probably due to Mu1's greater charge ratio. While both peptides are approximately the same molecular weight, the overall charge ratio of Mu1 was more than twice that of Vp1 (Table 1). […] While a small shift in pDNA mobility was detected when 0.25 μg Mu1 was complexed to 1 μg pCMVβ, almost all of the plasmid was retained near the loading well following addition of 0.5 μg Mu1 (FIG. 1). A 0.5/1.0 (w/w) ratio of Mu1 to pCMVβ corresponds to a 1000/1 molar ratio. Each molecule of Mu1 contains 12 residues that could potentially carry a positive charge. The theoretical charge ratio of Mu1 to pCMVβ would then be 1.6 (12000 Mu1 cations to 7500 pCMVβ anions).

Turning to H-MRRAHHRRRRASHRRMRGG-OH [Mu1], the “concentration in solution, optimal transfections” value in data set [1] (12 μg Mu1/1 μg pCMVβ, 400 μL) came to 30 ng/mL. Moreover, the “relative ratios pCMVβ/Mu1/(DC-Chol/DOPE) giving greatest improvement in transfection efficiencies” value in data set [1] (0.6-21 μg Mu1, 3-6 μg liposome per 1 μg pCMVβ tested) is 1/12/6. Also, in data set [1] (1/12/6 pCMVβ/Mu1/(DC-Chol/DOPE) w/w/w), the “increase in transfections compared to DNA alone” value worked out at 11 fold. Besides, in data set [1] (Mu1 complex (data not shown)), the “concentration of protein in the cellular lysates vs untransfected cells” value was “did not significantly vary”. Moreover, in data set [1] (pCMVβ complexed to Mu1 alone, no liposome), the “improvement in transfection efficiencies over naked DNA” value is recorded as “No improvement in transfection efficiencies over naked DNA”. Further, the “effect on transfection efficiencies” value in data set [1] (pDNA:Mu1 1:0.5 (w/w) with liposomes, initial experiments (not shown)) is recorded as “did not affect transfection efficiencies”. Also, in data set [1] (β-galactosidase activity, Mu1 with DC-Chol/DOPE vs liposome without Mu1), the “improvement of cationic liposome mediated transfection efficiencies” value is on record as “over 4 fold”. For the same substance, the “number of X-Gal positive cells (FIG. 3)” value in data set [2] (1/12/6 vs pCMVβ with DC-Chol/DOPE 1/3, 48 h) is listed as “significantly enhanced the number of X-Gal positive cells”. Moreover, the “increase in the number of β galactosidase positive cells” value in data set [2] (1:12:6 pCMVβ:Mu1:DC-Chol/DOPE) came out at 6 fold. Besides, the cell loss result in data set [2] (Mu1 complex, any of the concentrations utilized) is reported as “No obvious cell loss”. The Charge/AA ratio in data set [3] is listed as 0.63. Moreover, the “theoretical charge ratio of Mu1 to pCMVβ” value in data set [3] (0.5/1.0 (w/w) Mu1 to pCMVβ, 12000 cations to 7500 anions) worked out at 1.6.
